The values below come from patent US6521267B1, “Tyrosinase inhibitors from plants” (Fytokem Prtoducts, Inc., priority 1998, dated 2003).

Each structure is given as a SMILES string. Where only a bound is given, the exact number is not on record here.

The assay has as its system tyrosinase (Sigma T-7755). Kind of assay: tyrosinase assay: conversion of L-DOPA to DOPAquinone, monitored at 475 nm. In kind it is biochemical. The note with it: for Inhibition of tyrosinase enzyme step 2, 0.001% conc: ingredient at 0.001% conc; for Inhibition of tyrosinase enzyme step 2, 0.01% conc: ingredient at 0.01% conc; for Inhibition of tyrosinase enzyme step 2, 0.1% conc: ingredient at 0.1% conc; for Inhibition of tyrosinase enzyme step 2, 1% conc: ingredient at 1% conc; for INHIBITION OF ENZYME: comparison standard, 1% solution (solids present 1.0). Here is the method:
The tyrosinase assay was based on methods previously published (Mason, H. S., (1948) J. Biol. Chem. 172, 83-86; Dawson, C. R. and Magee, R. J. (1955) Methods in Enzymology II 817-827 (Editors-in-chief S. P. Colowick and N. O. Caplan); Lerner, A. B. (1955) ibid 827-831; Bergmeyer, U. H. (1983) Methods of Enzymatic Analysis (Published by Verlag Chemie, Weinheim)). The protocol was as follows, scaled for the approximately twenty sample determinations:
(a) A buffer solution of pH 6.5 was prepared by dissolving 1.4 9 disodium monohydrogen phosphate (Na2HPO4) and 1.4 g monopotassium dihydrogen phosphate (KH2PO4) in pure water to make 200 mL.
(b) An enzyme solution of either 1.0 mg or 3.0 mg tyrosinase (Sigma T-7755) was prepared in 30 mL buffer and stored at 2° C. until use.
(c) A substrate solution was prepared by dissolving 0.10 g L-DOPA (L-3,4-dihydroxyphenyl-alanine, Sigma D-9661) in 100 ML buffer.
(d) The unfettered enzyme reaction rate was measured by mixing together 0.5 mL buffer solution and 0.5 mL substrate solution in twin acrylate mini-cuvettes (path 2.0 mm), and after observing the stability of the mixture, mixing in 0.25 mL enzyme solution to one cuvette. The formation of red DOPAquinone was monitored spectrophotometrically at 475 nm, at times 0, 1, 2 and 3 minutes.
(e) The effect of added substances on the enzyme reaction rate was measured by mixing together 0.5 mL buffer solution, 0.5 mL substrate solution and 0.25 mL test substance (at 1% strength in 50:50 butyleneglycol:water) in twin acrylate mini-cuvette. The reaction was tracked spectrophotometrically at 475 nm, reading at 0, 1, 2 and 3 minutes.
(f) The effect of test substances on reaction rate was expressed as inhibition (I) where I=100−[100 (trt absorbance change, 3 min)/100(control absorbance change, 3 min)].
Concentrations of substrate, enzyme or test substance can be varied as appropriate.
(§1) This assay duplicates rate-controlling steps in the human metabolic pathway to skin pigmentation. Pure hydroquinone in 1% solution was employed as a comparison standard.
as §1

On to `O=C1O[C@H]([C@@H](O)CO)C(O)=C1O` [Ascorbic acid, L-ascorbic acid], for which, where the note is “Table 4”, the “Inhibition of tyrosinase enzyme step 2, 0.001% conc” value (“Inhibition … 0.001% conc” for short) is reported as 23%; the “Inhibition of tyrosinase enzyme step 2, 0.01% conc” value (shortened to “Inhibition … 0.01% conc”) turned out to be 82%; the “Inhibition of tyrosinase enzyme step 2, 0.1% conc” value (shortened to “Inhibition … 0.1% conc”) amounted to 100%; the “Inhibition of tyrosinase enzyme step 2, 1% conc” value came out at 100%. Under “Table 6”, the “Inhibition … 0.001% conc” value was 23%; the “Inhibition … 0.01% conc” value amounted to 82%; the “Inhibition … 0.1% conc” value was 100%; the “Inhibition of tyrosinase enzyme step 2, 1% conc” value amounted to 100%.

For `Oc1ccc(O)cc1` [Hydroquinone, 1,4-dihydroxybenzene], the “Enzymes reaction rate reduction @ 5 μg enzyme” value (5 μg enzyme, test substance at 1% strength) is 65%. The “Enzymes reaction rate reduction @ 15 μg enzyme” value (15 μg enzyme, test substance at 1% strength) worked out at 55%. Besides, under “Table 3”, the “INHIBITION OF ENZYME” value is on record as 58-62%. Also, under “Table 4”, the “Inhibition … 0.001% conc” value is recorded as below 10%; the “Inhibition … 0.01% conc” value was below 10%; the “Inhibition … 0.1% conc” value is 31%; the “Inhibition of tyrosinase enzyme step 2, 1% conc” value was determined as 60%. Further, for the setting “Table 5”, the “INHIBITION OF ENZYME” value is 38-62%. Besides, where the note is “Table 6”, the “Inhibition … 0.001% conc” value is below 10%; the “Inhibition … 0.01% conc” value is on record as below 10%; the “Inhibition … 0.1% conc” value is on record as 31%; the “Inhibition of tyrosinase enzyme step 2, 1% conc” value is recorded as 60%.

Turning to `CC(O)CCO` (stereo not drawn) [butanediol, 1,3-butanediol], the “effect on tyrosinase in standard assays (in words)” value (constituents of TYROSTAT compositions) is reported as “slightly inhibitory”.
